Reference: patent publication US20210278393A1, “METHOD FOR MEASURING SINGLE-CELL BIOMASS TO PREDICT CLINICAL OUTCOMES FOR STEM CELL TRANSPLANT PATIENTS” (VIRGINIA COMMONWEALTH UNIVERSITY, priority 2016, published 2021)

Columns and labels:
M249R4 cells = experiment: HSLCI kinase inhibitor screen in Vemurafenib-resistant melanoma; format: cell-based, human
Procedure: (§1) Kinase inhibitor screen. 1× Dose Determination: For each inhibitor, a 1× dose was calculated. Briefly, recommended clinical doses were obtained from published package inserts. Doses were matched to peak serum concentrations (Cmax (ng/mL)) for each inhibitor as measured in clinical trials in which the recommended doses were utilized. Using each drugs' molecular weight, peak serum concentration values were converted to uM units and designated as 1×. […] Cobimetinib and Binimetinib were supplied as dry powders and suspended in DMSO to a final stock concentration of 10 mM upon receipt. Cell Preparation and Dosing: M249R4 cells were plated in a 24-well optical glass-bottomed plate (Cat. #P24-0-N, Cellvis) at 1×10^4 cells/ml (total of 1 mL in each of 24 wells) in media (DMEM, 10% Fetal Bovine Serum, 2 mM L-Glutamine) containing 1 uM Vemurafenib. Plated cells were allowed to adhere overnight at 37° C., 5% CO2. All cells were washed with 1× phosphate-buffered saline, pH 7.4, and provided with fresh media. Immediately following washing and feeding, cells were dosed with inhibitors at dose-escalating concentrations and incubated under standard cell culture conditions for 24 hours. After incubation, cells were imaged for 10 hours using the HSLCI system.
(§2) These inhibitors target a spectrum of kinases (Table 2). […] For each targeted kinase inhibitor, a 1× dose was calculated to match the peak tolerated serum concentration (Cmax (ng/mL)), as measured in clinical trials. Our first assay screened all seven inhibitors at several concentrations to identify those that elicited the most apparent reduction in cell growth rates.

[1] = at recommended clinical dose, clinical trials; cited from earlier work
[2] = Peak serum concentration (Cmax) in clinical trials at recommended clinical dose; format: in vivo, human; conditions: 1× dose for the screen
Procedure: as §1, §2

[3] = tested on: all three parental lines (M229P, M238P, M249P); experiment: HSLCI population kinetic response (biomass growth rate); format: cell-based, human; conditions: 5 μM Vemurafenib
From the text: Live Cell Interferometry. The standard and high speed LCI platforms were based on a custom built inverted microscope, coupled to a quantitative phase detecting camera (SID4BIO, Phasics) which consists of a modified Shack-Hartman mask, fitted to a 1600×1200 pixel CCD camera [Imprex B1621]). The phase calculation down samples the raw image to 400×300 pixels, resulting in effective pixel sizes between 1.3 μm and 2.5 μm, depending on the objective. […] In both the standard and high speed systems, position was determined by maximizing contrast during a vertical scan though focus. […]
Image analysis. Raw interferograms were converted to phase images using the manufacturer's software and analyzed with our custom MATLAB script (The MathWorks). […] Using the resulting flattened phase images, single cells segmented from the background using Canny spatial-derivative edge detection algorithms, their locations, and optical volumes were recorded. […] Single cell growth tracks were quality filtered using an upper cutoff of +1-15% uncertainty (s.d. of residuals) in the calculated growth rate, as determined by linear fitting the biomass versus time data. […]

[4] = second assay, up to 10× concentration

uM (1×) (peak serum concentration converted using molecular weight) [2] [µM]	Structure (SMILES)	dose response (M249R4 cells; first assay)	Serum Conc. (ng/mL) (peak serum concentration, Cmax) [1]	dose response (M249R4 cells; second assay, dosing range 0.05×-1×)	growth rate response (M249R4 cells; first assay, 0.1×)	growth rate response (M249R4 cells; second assay, doses greater than 0.1×)	cell killing (M249R4 cells; [4])	dose response (M249R4 cells; [4])	time by which significant growth rate reduction occurred [3] [h]
0.58	Cn1cnc2c(F)c(Nc3ccc(Br)cc3F)c(C(=O)NOCCO)cc21 [Binimetinib]	slight dose response	257.0						
0.51	O=C(c1ccc(F)c(F)c1Nc1ccc(I)cc1F)N1CC(O)([C@@H]2CCCCN2)C1 [Cobimetinib]		273	robust dose responses					
2.02	CC(C)(C)c1nc(-c2cccc(NS(=O)(=O)c3c(F)cccc3F)c2F)c(-c2ccnc(N)n2)s1 [Dabrafenib]		1050		slight reduction in growth rate	reduced growth rates	nor does it kill cells	does not elicit a dose response	
2.55	Cn1cnc2c(F)c(Nc3ccc(Br)cc3Cl)c(C(=O)NOCCO)cc21 [Selumetinib]		1165						
0.04	CC(=O)Nc1cccc(-n2c(=O)n(C3CC3)c(=O)c3c(Nc4ccc(I)cc4F)n(C)c(=O)c(C)c32)c1 [Trametinib]		22.2						
9.80	CCCS(=O)(=O)Nc1ccc(F)c(C(=O)c2c[nH]c3ncc(-c4ccc(Cl)cc4)cc23)c1F [Vemurafenib]		4800						≤ 20
